Assay [1] addresses T1, human HDAC8 (Homo sapiens, UniProt Q9BY41).
T1 sequence (Q9BY41 1-377): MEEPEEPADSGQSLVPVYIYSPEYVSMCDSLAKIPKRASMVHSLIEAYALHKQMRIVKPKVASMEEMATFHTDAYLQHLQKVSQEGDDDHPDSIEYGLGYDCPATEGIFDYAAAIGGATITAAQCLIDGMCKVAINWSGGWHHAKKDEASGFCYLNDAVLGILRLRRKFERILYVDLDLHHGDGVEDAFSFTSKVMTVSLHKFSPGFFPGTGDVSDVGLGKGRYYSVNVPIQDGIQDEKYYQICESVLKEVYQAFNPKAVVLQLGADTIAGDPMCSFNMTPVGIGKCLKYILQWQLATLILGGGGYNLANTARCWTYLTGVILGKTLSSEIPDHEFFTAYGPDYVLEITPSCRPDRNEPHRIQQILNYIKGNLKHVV
Nature of the assay: Temperature-dependent ITC. In kind it is binding. Conditions: for temp (K), where ΔG° = ΔH°: interpolated from the ΔCp° plots, TΔS° = 0.

In assay [2] the target is T1, human HDAC8. Put plainly: Isothermal titration calorimetry. In kind it is binding. Background: In ITC the heat of successive injections is recorded.
In a further assay the target is HDAC8. Conditions: read-out: Ki for HDAC8; cited from earlier work.
Where [3] appears, read: Tris-HCl buffer (pH 7.5), 25 °C.
The mark [4] stands for this setting: difference versus SAHA, Table 1 conditions.

The Ki is a dissociation constant, usually derived from enzyme kinetics or from competition with a known ligand.

Regarding `O=C(CCCCCCC(=O)Nc1ccccc1)NO` [SAHA, suberoylanilide hydroxamic acid], the “temp (K), where ΔG° = ΔH°” value at human HDAC8 [1] came out at 288 K. For the same molecule, at human HDAC8 [2] (Table 1 conditions), the “higher favorable binding enthalpy compared to that of TSA” value was 2 kcal/mol. Besides, at human HDAC8 [2] (setting [3]), the stoichiometry was 0.9 ± 0.1 and the “ΔG°obs” value was “–8.4 ± 0.3 kcal/mol”. Further, on human HDAC8 [2] (control ITC titration for every batch of enzyme), the “stoichiometry of the enzyme–SAHA complex” value is reported as 0.9–1.

Consider `O=C(CCCCCCC(=O)Nc1cccnc1)NO` [pyroxamide], for which, on HDAC8, the Ki was 1000 nM.

On to `Cn1cc(C(=O)c2ccccc2)cc1C=CC(=O)NO` [APHA], for which, on HDAC8, the inhibitory constant (Ki) was 600 nM.

Turning to `CC(NC(=O)CCCc1ccc2ccc3cccc4ccc1c2c34)C(=O)NO` (stereo not shown) [MH-12/4, N-(1-Hydroxycarbamoyl-ethyl)-4-pyren-1-yl-butyramide], the “ΔCp°” value at human HDAC8 [1] (5–25 °C, Tris-HCl buffer, slope of ΔH°obs vs temperature) is “–0.13 ± 0.02 kcal mol^–1 K^–1”. In addition, the “temp (K), where ΔG° = ΔH°” value on human HDAC8 [1] is recorded as 341 K. Besides, on human HDAC8 [2] (setting [3]), the “TΔS°obs” value stood at 5.3 ± 0.4 kcal/mol, the stoichiometry came out at 0.9 ± 0.1, the “ΔG°obs” value is on record as “–8.0 ± 0.4 kcal/mol” and the “ΔH°obs” value is “–2.72 ± 0.3 kcal/mol”. Besides, at human HDAC8 [2] (setting [4]), the “binding enthalpy less favorable than that of SAHA by” value came to 8.2 kcal/mol and the “binding entropy (TΔS°) more favorable than that of SAHA by” value was found to be 7.8 kcal/mol.

Take `O=C(CCCc1ccccc1)NO` [4-PBHA]: on HDAC8, the Ki is 1850 nM.

The values are drawn from paper PMC4263425 (Biochemistry, 2014).
